Results taken from patent US8476023B2, “Methods relating to aromatase inhibitor pharmacogenetics” (The Penn State Research Foundation, priority 2009, dated 2013).

What was measured:
[1] = Kinetic analysis of glucuronidation by individual HLM from UGT2B17 (*2/*2) subjects; format: in vitro ADME, human; details: human, liver microsomes of UGT2B17 (*2/*2) subjects
[2] = system: human liver microsomes (HLM), UGT2B17 (*2/*2) genotype; experiment: as above; format: in vitro ADME; details: per mg HLM protein
[3] = biological target: T1, UGT2B17 (Homo sapiens, UniProt O75795); experiment: Glucuronidation assay, UGT2B17-overexpressing HEK293 cell homogenate; format: in vitro ADME; details: UGT2B17; up to 600 μM substrate
T1 construct: expressed in transfected cells; host or cells: HEK293
T1 sequence (O75795 24-530): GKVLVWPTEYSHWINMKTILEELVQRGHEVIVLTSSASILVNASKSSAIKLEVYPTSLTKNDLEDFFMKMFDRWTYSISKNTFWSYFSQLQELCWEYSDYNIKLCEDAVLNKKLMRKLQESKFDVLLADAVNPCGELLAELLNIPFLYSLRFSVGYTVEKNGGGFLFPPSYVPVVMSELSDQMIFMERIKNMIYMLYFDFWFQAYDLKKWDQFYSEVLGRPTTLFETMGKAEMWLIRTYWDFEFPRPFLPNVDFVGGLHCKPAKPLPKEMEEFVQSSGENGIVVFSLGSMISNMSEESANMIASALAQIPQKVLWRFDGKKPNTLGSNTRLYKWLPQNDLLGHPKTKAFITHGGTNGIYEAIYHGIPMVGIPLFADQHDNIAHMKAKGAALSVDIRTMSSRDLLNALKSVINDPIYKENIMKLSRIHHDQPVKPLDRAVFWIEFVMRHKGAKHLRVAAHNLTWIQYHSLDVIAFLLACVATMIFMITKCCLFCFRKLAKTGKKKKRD

[4] = system: UGTs 1A1, 1A3, 1A6, 1A7, 1A9, 2B4, 2B7, 2B10, 2B11, 2B15; experiment: Screening of the other UGT-overexpressing HEK293 cell homogenates for glucuronidation activity; format: in vitro ADME, human; details: other UGTs screened; up to 1 mg of UGT overexpressing cell homogenate
[5] = biological target: T2, UGT1A4^24Pro/48Leu (Homo sapiens, UniProt P22310); experiment: Glucuronidation assay, UGT1A4 24Pro/48Leu-overexpressing HEK293 cell homogenate; format: in vitro ADME; details: UGT 1A4 as worded in text; up to 600 μM substrate
T2 construct: expressed in transfected cells; host or cells: HEK293
T2 sequence (P22310 29-534): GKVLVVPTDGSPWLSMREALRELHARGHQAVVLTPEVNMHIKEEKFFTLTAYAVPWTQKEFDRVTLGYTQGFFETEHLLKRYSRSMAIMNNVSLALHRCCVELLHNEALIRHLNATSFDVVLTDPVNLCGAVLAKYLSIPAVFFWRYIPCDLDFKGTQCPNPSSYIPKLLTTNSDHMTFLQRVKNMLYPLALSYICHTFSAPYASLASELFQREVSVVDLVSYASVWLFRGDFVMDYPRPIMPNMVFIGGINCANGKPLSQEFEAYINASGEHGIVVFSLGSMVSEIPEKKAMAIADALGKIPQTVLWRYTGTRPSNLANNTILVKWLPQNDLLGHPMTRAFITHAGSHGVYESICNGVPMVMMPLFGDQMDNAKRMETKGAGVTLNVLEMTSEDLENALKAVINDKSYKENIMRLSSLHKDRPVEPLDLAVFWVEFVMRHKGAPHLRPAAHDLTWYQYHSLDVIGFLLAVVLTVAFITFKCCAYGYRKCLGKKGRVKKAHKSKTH

[6] = system: human liver microsomes (HLM); experiment: Rate of exemestane-17-O-glucuronide formation in a series of 110 HLM by UGT2B17 genotype; format: in vitro ADME; details: 9.4 μM 17-dihydroexemestane, p<0.001
[7] = Kinetic analysis of glucuronidation by individual HLM from UGT2B17 (*1/*1) subjects; format: in vitro ADME, human; details: human, liver microsomes of UGT2B17 (*1/*1) subjects
[8] = system: human liver microsomes (HLM), UGT2B17 (*1/*1) genotype; experiment: as above; format: in vitro ADME; details: per mg HLM protein
[9] = biological target: T3, UGT1A8 (Homo sapiens, UniProt Q9HAW9); experiment: Glucuronidation assay, UGT1A8-overexpressing HEK293 cell homogenate; format: in vitro ADME; details: up to 600 μM substrate
T3 construct: expressed in transfected cells; host or cells: HEK293
T3 sequence (Q9HAW9 26-530): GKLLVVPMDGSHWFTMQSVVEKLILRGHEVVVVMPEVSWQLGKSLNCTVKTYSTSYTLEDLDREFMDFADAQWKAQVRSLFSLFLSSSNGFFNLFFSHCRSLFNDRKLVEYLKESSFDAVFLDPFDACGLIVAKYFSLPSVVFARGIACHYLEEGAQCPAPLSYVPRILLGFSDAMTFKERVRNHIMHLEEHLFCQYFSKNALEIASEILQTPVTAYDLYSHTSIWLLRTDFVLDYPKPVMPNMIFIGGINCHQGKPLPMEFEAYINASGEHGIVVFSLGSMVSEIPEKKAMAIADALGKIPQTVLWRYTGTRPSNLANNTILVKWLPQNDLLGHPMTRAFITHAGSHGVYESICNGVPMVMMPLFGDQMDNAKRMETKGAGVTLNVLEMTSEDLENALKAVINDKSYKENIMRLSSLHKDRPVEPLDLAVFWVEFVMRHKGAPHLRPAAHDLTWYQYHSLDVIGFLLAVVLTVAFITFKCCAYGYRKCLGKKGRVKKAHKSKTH

[10] = biological target: T4, UGT1A10 (Homo sapiens, UniProt Q9HAW8); experiment: Glucuronidation assay, UGT1A10-overexpressing HEK293 cell homogenate; format: in vitro ADME; details: UGT1A10; up to 600 μM substrate
T4 construct: expressed in transfected cells; host or cells: HEK293
T4 sequence (Q9HAW8 26-530): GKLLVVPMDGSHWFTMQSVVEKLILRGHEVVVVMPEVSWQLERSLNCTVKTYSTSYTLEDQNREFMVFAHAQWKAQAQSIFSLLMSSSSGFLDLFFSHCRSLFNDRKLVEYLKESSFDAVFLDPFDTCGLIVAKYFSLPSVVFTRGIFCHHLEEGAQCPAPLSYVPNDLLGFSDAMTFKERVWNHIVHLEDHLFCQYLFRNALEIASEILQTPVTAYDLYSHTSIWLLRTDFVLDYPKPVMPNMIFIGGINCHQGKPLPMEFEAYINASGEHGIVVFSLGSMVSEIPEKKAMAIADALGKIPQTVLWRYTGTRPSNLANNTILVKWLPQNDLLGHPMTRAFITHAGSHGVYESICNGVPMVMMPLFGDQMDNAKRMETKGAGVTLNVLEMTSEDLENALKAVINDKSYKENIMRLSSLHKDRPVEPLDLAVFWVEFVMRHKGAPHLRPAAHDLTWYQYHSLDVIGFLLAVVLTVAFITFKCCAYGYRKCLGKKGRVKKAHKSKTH

[11] = system: UGT1A4^24Thr/48Leu; experiment: Glucuronidation assay, UGT1A4 24Thr/48Leu-overexpressing HEK293 cell homogenate; format: in vitro ADME, human; details: normalized per μg UGT protein by Western blot
[12] = system: UGT1A4 24Thr/48Leu; experiment: as above; format: in vitro ADME, human; details: human, pH 7.4

SMILES: C=C1C[C@@H]2[C@H](CC[C@]3(C)C(O)CC[C@@H]23)[C@@]2(C)C=CC(=O)C=C12 (stereo partly shown) [17-dihydroexemestane]
- Km at 60 min ([1]; pH 7.4, HLM # 383, UGT2B17 (*2/*2), read-out: KM): 9.3 µM
- Km at 60 min ([1]; pH 7.4, HLM # 416, UGT2B17 (*2/*2), read-out: KM): 17 µM
- Km at 60 min ([1]; pH 7.4, HLM # 2174, UGT2B17 (*2/*2), read-out: KM): 12.4 µM
- Km at 60 min ([1]; pH 7.4, HLM # 2175, UGT2B17 (*2/*2), read-out: KM): 13 µM
- Km at 60 min ([1]; pH 7.4, HLM # 3873, UGT2B17 (*2/*2), read-out: KM): 11 µM
- Km at 60 min ([1]; pH 7.4, mean of five UGT2B17 (*2/*2) HLM, read-out: KM, mean ± S.D.): 12.8 ± 3 µM
- Vmax ([2]; HLM # 383, UGT2B17 (*2/*2)): 17.0 pmol/min/mg
- Vmax ([2]; HLM # 416, UGT2B17 (*2/*2)): 5.6 pmol/min/mg
- Vmax ([2]; HLM # 2174, UGT2B17 (*2/*2)): 13.0 pmol/min/mg
- Vmax ([2]; HLM # 2175, UGT2B17 (*2/*2)): 2.3 pmol/min/mg
- Vmax ([2]; HLM # 3873, UGT2B17 (*2/*2)): 8.1 pmol/min/mg
- Vmax, mean ± S.D. ([2]; mean of five UGT2B17 (*2/*2) HLM): 9.2 ± 5.9 pmol/min/mg
- glucuronidation activity in UGT screen [3]: detectable activity
- glucuronidation activity in UGT screen [4]: None of the other UGTs screened in assays described herein exhibited any glucuronidation activity
- glucuronidation activity in UGT screen [5]: detectable activity
- decrease in glucuronidation activity in HLM (*2/*2) compared with HLM (*1/*1) [6]: 14 fold
- Km at 60 min ([7]; pH 7.4, HLM # 972, UGT2B17 (*1/*1), read-out: KM): 10.6 µM
- Km at 60 min ([7]; pH 7.4, HLM # 1183, UGT2B17 (*1/*1), read-out: KM): 7.2 µM
- Km at 60 min ([7]; pH 7.4, HLM # 1392, UGT2B17 (*1/*1), read-out: KM): 7.1 µM
- Km at 60 min ([7]; pH 7.4, HLM # 2412, UGT2B17 (*1/*1), read-out: KM): 6.7 µM
- Km at 60 min ([7]; pH 7.4, mean of five UGT2B17 (*1/*1) HLM, read-out: KM, mean ± S.D.): 7.3 ± 2 µM
- Vmax ([8]; HLM # 972, UGT2B17 (*1/*1)): 51.6 pmol/min/mg
- Vmax ([8]; HLM # 1183, UGT2B17 (*1/*1)): 322 pmol/min/mg
- Vmax ([8]; HLM # 1392, UGT2B17 (*1/*1)): 393 pmol/min/mg
- Vmax ([8]; HLM # 2167, UGT2B17 (*1/*1)): 38.9 pmol/min/mg
- Vmax ([8]; HLM # 2412, UGT2B17 (*1/*1)): 213 pmol/min/mg
- Vmax, mean ± S.D. ([8]; mean of five UGT2B17 (*1/*1) HLM): 204 ± 158 pmol/min/mg
- glucuronidation activity in UGT screen [9]: detectable activity
- glucuronidation activity in UGT screen [10]: detectable activity
- Vmax [11]: 0.26 ± 0.04 pmol · min^−1 · μg UGT protein^−1
- Km at 60 min [12]: 28 ± 7.8 µM
